Values of other authors as cited in PMC12525602, “Identification of Selective α-Glucosidase Inhibitors via Virtual Screening with Machine Learning” (Molecules, 2025).
Where two headings read alike, the source gives them in different places.

System: α-glucosidase
Details: cited from earlier work
[1] = Table S5 modeling dataset, activity label 1 = active, 0 = inactive
[2] = activity label of the modeling dataset (Table S5), α-glucosidase, 1 = active, 0 = inactive
[3] = activity label of the 300-compound modeling dataset, Table S5
[4] = activity label in the 300-compound modeling dataset (Table S5), 1 = active, 0 = inactive
[5] = activity label of the modeling dataset, Table S5 (1 = active, 0 = inactive)
[6] = activity label of the modeling dataset, sheet Table S5, 1 = active, 0 = inactive
[7] = activity label of the modeling dataset, Table S5

## COc1ccc(S(=O)(=O)NNC(=O)c2cc3cc(F)ccc3[nH]2)cc1 [compound 105]
[1]
  activity: 0

## CC1CCCN(c2ccc(/C=N/Nc3nc(-c4ccc(Cl)cc4)cs3)cc2)C1 (stereo not drawn) [compound 13]
[2]
  activity: 0

## N#Cc1c(-c2ccc(Cl)cc2)cc(-c2cccc(Cl)c2)c(C#N)c1N [compound 12]
[2]
  activity: 0

## N#Cc1c(-c2ccc(-c3ccccc3)cc2)cc(-c2ccc([N+](=O)[O-])cc2)c(C#N)c1N [compound 10]
[2]
  activity: 0

## O=C(c1ccccc1)c1ccc2nc(-c3ccc(Cl)cc3)[nH]c2c1 [compound 114]
[1]
  activity: 0

## CN(C)c1ccc(/C=N/CCc2ccc(O)cc2)cc1 [compound 258]
[3]
  activity: 1

## COc1ccc(/C(CSc2nnc3c(n2)[nH]c2ccccc23)=N\c2nnc(-c3ccc(Cl)c(Cl)c3)s2)cc1 [compound 249]
[3]
  activity: 1

## O=c1c(O)c(-c2ccc(O)c(O)c2)oc2cc(O)ccc12 [compound 231]
[4]
  activity: 1

## CCOC(=O)c1ccc(-n2c(/C=C3\OC(=O)c4c3cc(C)[nH]c4=O)ccc2CO)cc1 [compound 228]
[4]
  activity: 1

## O=c1c(O)c(-c2ccc(O)cc2)oc2cc(O)ccc12 [compound 252]
[3]
  activity: 1

## N#Cc1ccc2[nH]c(-c3nnc(Nc4ccc([N+](=O)[O-])cc4)s3)cc2c1 [compound 60]
[5]
  activity: 0

## c1ccc(-c2cnc3ccccc3n2)cc1 [compound 278]
[3]
  activity: 1

## Cc1ccc(-c2cc(C(F)(F)F)nn2-c2ccc(S(=O)(=O)NC(=O)c3ccccc3)cc2)cc1 [compound 197]
[4]
  activity: 1

## COc1cc(/C=C/C(=O)O)ccc1O/C(=C\c1cc(OC)c(O)c(-c2cc(/C=C/C(=O)O)cc(OC)c2O)c1)C(=O)O [compound 210]
[4]
  activity: 1

## COc1ccc(/C=N/N=C(/C)c2ccc([N+](=O)[O-])cc2)c(OC)c1 [compound 291]
[6]
  activity: 1

## Cn1ccnc1SC(=O)c1ccc(-c2cccc(Cl)c2)o1 [compound 298]
[6]
  activity: 1

## COc1ccc2nc3cc(Cl)ccc3c(SCC(=O)NCc3cccc(Cl)c3)c2c1 [compound 266]
[3]
  activity: 1

## COc1cccc(C(=O)C2C(O)c3ccccc3S(=O)(=O)N2CC(=O)Nc2ccccc2Br)c1 (stereo not drawn) [compound 187]
[4]
  activity: 1

## N#Cc1ccc2[nH]c(-c3nnc(Nc4ccc(F)cc4)s3)cc2c1 [compound 170]
[7]
  activity: 1

## O=C(CCc1ccc(NS(=O)(=O)c2ccc(C(F)(F)F)cc2)cc1)N1CC[C@H](O)[C@H](O)C1 [compound 225]
[4]
  activity: 1

## Brc1ccc(-n2cc(CSc3nnc(COc4cccc5cccnc45)o3)nn2)cc1 [compound 81]
[5]
  activity: 0

## N#Cc1c(-c2ccc(Cl)cc2)cc(-c2ccccn2)c(C#N)c1N [compound 21]
[2]
  activity: 0

## Cc1ccc(-c2cc(C(F)(F)F)nn2-c2ccc(S(=O)(=O)NC(=O)c3ccccc3[N+](=O)[O-])cc2)cc1 [compound 201]
[4]
  activity: 1

## N#Cc1ccc2[nH]c(-c3nnc(Nc4ccc(Cl)c(Cl)c4)s3)cc2c1 [compound 193]
[4]
  activity: 1

## CC1CCCN(c2ccc(/C=N/Nc3nc(-c4ccc(Br)cc4)cs3)cc2)C1 (stereo not drawn) [compound 70]
[5]
  activity: 0

## Cc1ccccc1Cn1cc(COc2ccc(/C=N/N=C3\C(=O)N(c4ccc(Br)cc4)c4ccccc43)cc2)nn1 [compound 146]
[7]
  activity: 0

## COc1cc(-c2oc3cc(O)cc(O)c3c(=O)c2O)ccc1O [compound 161]
[7]
  activity: 1

## Brc1ccc(CNc2cccc(-c3nc4ccccc4[nH]3)c2)cc1 [compound 275]
[3]
  activity: 1

## Clc1cccc(Cn2cc(CSc3nnc(COc4cccc5cccnc45)o3)nn2)c1 [compound 16]
[2]
  activity: 0

## O=C(O)/C=C/c1ccc(O)cc1 [compound 195]
[4]
  activity: 1

## O=[N+]([O-])c1ccccc1-c1nnc(/N=C(/CSc2nnc3c(n2)[nH]c2ccccc23)c2ccc(Br)cc2Br)s1 [compound 153]
[7]
  activity: 1

## N[C@@H](Cc1ccccc1)C(=O)O [compound 39]
[2]
  activity: 0

## COC(=O)Cn1c(=O)oc2c(C(=O)/C=C/c3cc(F)c(O)c(F)c3)cccc21 [compound 264]
[3]
  activity: 1
